# Results published in patent US20060166934A1, “Composition comprising phytosphingosine derivatives for apoptosis induction” (Tae-Yoon Kim, priority 2002, published 2006).
# Legend:
# apoptosis-related genes = test: Apoptosis array kit, gene expression; assay type: cell-based; details: 30 μM, 24 hours, FIG. 10
# Experimental: Firstly, in order to look into the genes involved in apoptosis induced by the compositions of the present invention, TAPS is treated at the dose of 30 μM for 24 hours, from which mRNA is isolated. Then it is observed by using an apoptosis array kit.
# The labeled cDNA is synthesized by using apoptosis-specific primers offered by Human Apoptosis Expression Assay (R&D System, Minneapolis, Minn.), which is used for a probe in incubation with 2 μg of the total RNA at 65° C. overnight. It is then washed with Washing Solution I (0.5×SSPE, 1% (w/v) SDA) three times at a room temperature and with Washing Solution II ([…]) for 1 hour at 65° C. The washed membranes are exposed to X-ray films at […], and developed.
# p53 = test: Immunoblot analysis of p53; assay type: cell-based, human; details: 30 μM, FIG. 12
# Experimental: In the confirmation of apoptosis-related proteins, the immunoblot analysis is performed in order to look into the effects of the compositions of the present invention on the expression of caspase-3, p53, and Chk1 proteins related to the induction of apoptosis. HaCaT cells are cultured on a 100-mm dish and collected at the indicative time. The proteins are extracted by adding 500 μl of RIPA lysis buffer (1% Nonidet P-40, 1% sodium deoxycholate, 0.1% SDS, […], 0.01 M sodium phosphate, pH 7.2, 2 mM EDTA, 50 mM sodium fluoride and 0.2 mM sodium vanadate), and the concentration is measured by using the Bradford method. 1 Extracted proteins is electrophoresed on 12% polyacrylamide gel, and they are transferred to the nitrocellulose membrane. The membrane blocked with 5% non-fat milk is reacted with the primary antibodies (caspase-3, p53, and Chk1), washed, and reacted with the secondary HRP-conjugated antibody. The intensity of proteins is analyzed by using the ECL kit.
substance,measurement,setting,value
tetraacetyl phytosphingosine [TAPS],expression of Bcl-10,apoptosis-related genes,increased
same,expression of COX-2 gene,apoptosis-related genes,increased
same,expression of IL-1β,apoptosis-related genes,increased
same,expression of Mcl-1,apoptosis-related genes,increased
same,expression of PIN gene,apoptosis-related genes,increased
same,expression of p21,apoptosis-related genes,increased
same,expression of p53 gene,apoptosis-related genes,decreased
same,expression of survivin,apoptosis-related genes,reduced
same,p53 protein,p53; at 8-hour,not changed greatly
same,p53 protein,p53; at 24 hour,rapid reduction
